Columns and labels:
[1] = target: T1, human KEAP1 (N-term, residues 321-609) (Homo sapiens, UniProt Q14145); assay: KEAP1 Kelch Fluorescence Polarization (FP) Assay; format: binding; details: inhibition of Kelch domain-NRF2 interaction; 2 nM FITC-labelled NRF2 peptide, 25 nM KEAP1, 1 h at room temperature; compounds below 10 nM cannot be differentiated
T1 construct: human KEAP1 (N-term, residues 321-609) enzyme
Procedure: Inhibition of the Kelch domain-NRF2 interaction was determined using a fluorescence polarization-based competition assay in a black 384-well microplate. Compounds were tested at a starting concentration of 10 μM serially diluted 1:3 to generate a 12-point dose response curve on the Biomek FX robot. Each well contained 2 nM FITC-labelled NRF2 peptide (FITC-LDEETGEFL-NH2) and 25 nM human KEAP1 (N-term, residues 321-609) enzyme in a final volume of 20 μL of assay buffer (50 mM Tris-HCl pH 8.0, 100 mM NaCl, 5 mM MgCl2, 0.005% Tween-20, 0.005% BSA, 0.5% DMSO) in the presence of varying concentrations of test compound. Unlabelled peptide (LDEETGEFL-NH2) at 50 μM (negative control) and 0.5% DMSO (positive control) was used to determine the assay window.
After 1 h at room temperature, fluorescence polarization (excitation 470 nm/emission 530 nm) was measured using an Envision plate reader. IC50 values were determined by fitting the data to a four parameter logistic fit using XLfit or XE Runner within ActivityBase. The assay limit is such that compounds below 10 nM cannot be differentiated.

[2] = system: NRF2 mediated gene NAD(P)H:quinone acceptor oxidoreductase 1 (NQO1) in BEAS-2B cells; assay: Beas2B NQO1 mRNA Cell Based Assay; details: Homo sapiens, NQO1 mRNA increase compared to vehicle (0.1% DMSO), 24 h
Procedure: The up regulation of the NRF2 mediated gene NAD(P)H:quinone acceptor oxidoreductase 1 (NQO1) was measured using the following assay method: BEAS-2B cells (ATCC CRL-9609) were plated in 96-well clear plates at 20,000 cells/well in 75 μL of cell culture media and incubated overnight (37° C., 5% CO2). On day 2, 25 μL of compound or controls were added to the cells for 24 h. On day 3, the medium was aspirated from the plate and the Cells-to-CT™ 1-Step TaqMan® Kit (Ambion A25603) was used to perform expression analysis directly from cultured cells without RNA purification according to the manufacturer's instructions.
Briefly, cells were washed with ice cold PBS and 22.5 μL of room-temperature DNase/Lysis solution was added to the cells and incubated at room temperature for 5 minutes. To stop the reaction, 2.25 μL of stop solution was added to the cell lysate. The samples were diluted 1:5 using nuclease free water and 2.5 μL transferred into the PCR plate. Real-time PCR was performed using the C-1000 Thermal Cycler (Bio-Rad) using human beta actin as the internal control. The cDNA was amplified with a specific primer for NQO1 using the 1-step RT-PCR master mix (Ambion Cells-to-CT™ 1-Step TaqMan® Kit A25603). The primers/probes sets that were used for amplification of cDNA were obtained from TaqMan Gene Expression Assays (Applied Biosystems). The comparative CT (ΔΔCT) relative quantification method was used to calculate the relative mRNA level of the target gene NQO1 as described in the Applied Biosystems Chemistry Guide. The data are expressed as an increase in target gene mRNA compared to vehicle (0.1% DMSO) control and the EC50 values were determined by fitting the data to a four parameter logistic fit using XLfit or XE Runner within ActivityBase.

T1 sequence (Q14145 321-609): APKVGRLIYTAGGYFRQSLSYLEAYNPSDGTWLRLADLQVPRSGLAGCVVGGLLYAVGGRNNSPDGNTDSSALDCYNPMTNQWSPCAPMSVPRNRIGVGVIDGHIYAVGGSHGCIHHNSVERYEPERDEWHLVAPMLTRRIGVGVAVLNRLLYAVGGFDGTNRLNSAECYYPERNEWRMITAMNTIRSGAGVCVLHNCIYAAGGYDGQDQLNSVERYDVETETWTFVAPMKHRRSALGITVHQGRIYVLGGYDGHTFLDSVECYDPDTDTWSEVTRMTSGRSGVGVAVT

Row | Structure (SMILES) | IC50 [1] | EC50 [2]
1 | Cn1nnc(COc2c(F)cc(Cl)c3c2[C@@H](CN2CC4(CC4)CC2=O)N(C(=O)[C@@H]2CCCC[C@]2(C)c2nnn[nH]2)CC3)c1C(F)F [Example 1, 5-(((S)-5-chloro-8-((5-(difluoromethyl)-1-methyl-1H-1,2,3-triazol-4-yl)methoxy)-7-fluoro-2-((1R,2S)-2-methyl-2-(1H-tetrazol-5-yl)cyclohexane-1-carbonyl)-1,2,3,4-tetrahydroisoquinolin-1-yl)methyl)-5-azaspiro[2.4]heptan-6-one] | 4.8 nM | 6.8 nM
2 | C[C@@H]1CC(=O)N(C[C@@H]2c3c(c(Cl)cc(F)c3OCc3nnn(C)c3C(F)F)CCN2C(=O)[C@@H]2CCCC[C@]2(C)C(=O)O)C1 [Example 3, (1S,2R)-2-((S)-5-chloro-8-((5-(difluoromethyl)-1-methyl-1H-1,2,3-triazol-4-yl)methoxy)-7-fluoro-1-(((R)-4-methyl-2-oxopyrrolidin-1-yl)methyl)-1,2,3,4-tetrahydroisoquinoline-2-carbonyl)-1-methylcyclohexane-1-carboxylic acid] | 4.4 nM | 2.1 nM
3 | Cc1nnc(COc2c(F)cc(Cl)c3c2[C@@H](CN2CC4(CC4)CC2=O)N(C(=O)[C@@H]2CCCC[C@]2(C)C(=O)O)CC3)n1C [Example 5, (1S,2R)-2-((S)-5-chloro-8-((4,5-dimethyl-4H-1,2,4-triazol-3-yl)methoxy)-7-fluoro-1-((6-oxo-5-azaspiro[2.4]heptan-5-yl)methyl)-1,2,3,4-tetrahydroisoquinoline-2-carbonyl)-1-methylcyclohexane-1-carboxylic acid] | 4.9 nM | 0.5 nM
4 | Cn1nnc(COc2c(F)cc(Cl)c3c2[C@@H](CN2CCOCC2=O)N(C(=O)[C@@H]2CCCC[C@]2(C)C(=O)O)CC3)c1C(F)F [Example 2, (1S,2R)-2-((S)-5-chloro-8-((5-(difluoromethyl)-1-methyl-1H-1,2,3-triazol-4-yl)methoxy)-7-fluoro-1-((3-oxomorpholino)methyl)-1,2,3,4-tetrahydroisoquinoline-2-carbonyl)-1-methylcyclohexane-1-carboxylic acid] | 5.4 nM | 1.3 nM
5 | Cn1cc(COc2c(F)cc(Cl)c3c2[C@@H](CN2CC4(CC4)CC2=O)N(C(=O)[C@@H]2CCCC[C@]2(C)C(=O)O)CC3)nn1 [Example 6, (1S,2R)-2-((S)-5-chloro-7-fluoro-8-((1-methyl-1H-1,2,3-triazol-4-yl)methoxy)-1-((6-oxo-5-azaspiro[2.4]heptan-5-yl)methyl)-1,2,3,4-tetrahydroisoquinoline-2-carbonyl)-1-methylcyclohexane-1-carboxylic acid] | 5 nM | 1 nM
6 | C[C@]1(C(=O)O)CCC[C@H]1C(=O)N1CCc2c(Cl)cc(F)c(OCc3nnn4c3CCCC4)c2[C@H]1CN1CC2(CC2)CC1=O [Example 4, (1S,2R)-2-((S)-5-chloro-7-fluoro-1-((6-oxo-5-azaspiro[2.4]heptan-5-yl)methyl)-8-((4,5,6,7-tetrahydro-[1,2,3]triazolo[1,5-a]pyridin-3-yl)methoxy)-1,2,3,4-tetrahydroisoquinoline-2-carbonyl)-1-methylcyclopentane-1-carboxylic acid] | 5 nM | 0.3 nM
